The values that follow come from patent US10125101B2, “Indanylaminopyridylcyclopropanecarboxylic acids, pharmaceutical compositions and uses thereof” (Boehringer Ingelheim International GmbH, priority 2016, dated 2018).

The structures appear in SMILES notation. pEC50, pIC50: −log10 of the molar value. ≈ marks a conversion by molar mass, not a printed value. Where two headings read alike, the source gives them in different places. Bounds are passed on as bounds.

Series [1] is described as follows: Chemical stability (degradation kinetics) in acidic aqueous media. It counts as physicochemical. The settings on record: pH value ca. 1.2 (acetonitrile/0.1 M aqueous HCl 2:3), 37° C. Here is the method:
Degradation kinetics is used to simulate chemical stability of compounds in the acidic part of the gastro intestinal tract. […] Their application as medical drugs to treat human diseases is therefore less restricted and troublesome.
The chemical stability of the compounds of the invention at pH value of ca. 1.2 is determined as follows:
Compound is dissolved in an HPLC vial either in a mixture of acetonitrile/0.1 M aqueous HCl (2:3; pH ca. 1.2) or in a mixture of acetonitrile/McIlvaine buffer pH 7.4 (2:3) to get a concentration of approximately 0.25 mg/ml. The vial was then transferred into an HPLC autosampler system and maintained at a temperature of 37° C. A first sample is taken and injected immediately into a standard HPLC system with a UV DAD detector. Further samples are injected after 2, 4, 6, 8 and 10 hours. Amount of degraded compound is measured by determining the recovery rate of compound [%] for each injection using an HPLC standard gradient method. Therefore the peak area of the main peak for the first injection (AUt0) is determined and set as 100%. Peak area of the main peak is determined also for the further injections (AUtn, n=2, 4, 6, 8, 10) and expressed as fraction of (AUt0)/(AUtn, n=2, 4, 6, 8, 10) [%].

For series [2], the target named is cytochrome P450 2C9-isoenzyme (Homo sapiens (Human), UniProt P11712). Put plainly: Inhibition of CYP-2C9 (diclofenac hydroxylation, human liver microsomes). In kind it is in vitro ADME. The settings on record: diclofenac 10 μM, 37° C. As to the method:
(§1) All assays are carried out on a robotic system in 96 well plates. The final incubation volume contains TRIS buffer (0.1 M), MgCl2 (5 mM), human liver microsomes (0.1 mg/mL), diclofenac (10 μM) and the test compound at five different concentrations or no compound (high control) in duplicate (e.g., highest concentration 10-50 μM with subsequent serial 1:4 dilutions). Following a short preincubation period, reactions are started with the cofactor (NADPH, 1 mM) and stopped by cooling the incubation down to 8° C. and subsequently by addition of one volume of acetonitrile. An internal standard solution—the stable isotope ^13C6-hydroxydiclofenac—is added after quenching of incubations. Peak area analyte (=metabolite formed) and internal standard is determined by LC-MS/MS. The resulting peak area ratio analyte to internal standard in these incubations is compared to a control activity containing no test compound. Within each of the assay runs, the IC50 of a positive control inhibitor (sulfaphenazole) is determined.

A further series addresses human GPR40 receptor (Homo sapiens (Human), UniProt O14842). Put plainly: IP1 accumulation measurements using the IPOne assay system. In kind it is cell-based. As to the method:
IP1 accumulation measurements using the IPOne assay system—1321N1 cells stably expressing human GPR40 receptor (Euroscreen, Belgium) are seeded 24 h before the assay in white 384-well plates in culture medium containing 10% FCS, 1% Na-Pyruvate and 400 μg/mL G418. IP1 is assayed according to the manufacturer's description (Cisbio Bioassays, France). In brief, the assay is started by substitution of the culture medium by stimulation buffer (Hepes 10 mM, CaCl2 1 mM, MgCl2 0.5 mM, KCl 4.2 mM, NaCl 146 mM, glucose 5.5 mM and LiCl 50 mM, pH 7.4). Cells are stimulated for 1 h at 37° C., 5% CO2 by addition of the compounds that are diluted in stimulation buffer containing LiCl. Assays are stopped by adding HTRF-conjugates (IP1-d2 and Anti-IP1 cryptate Tb) and lysis buffer, provided by the manufacturer. After an incubation time of 1 h at room temperature plates are measured using an EnVision™, Perkin Elmer. The obtained fluorescence ratios at 665/615 […] are then used to calculate the pEC50 values using Assay Explorer 3.3 Software (Accelrys, Inc.) by interpolation using an IP1 reference curve and subsequent sigmoidal curve fitting allowing for a variable hill slope.

The target of series [3] is cytochrome P450 2C8-isoenzyme (Homo sapiens (Human), UniProt P10632). Put plainly: Inhibition of CYP-2C8 (amodiaquine deethylation, human liver microsomes). In kind it is in vitro ADME. The conditions noted are these: amodiaquine 1 μM, 37° C. As to the method:
as §1, with “microsomes (0.05” for “microsomes (0.1”, “mg/mL), amodiaquine (1” for “mg/mL), diclofenac (10”, “duplicate (e.g.” for “duplicate (e.g.,”, “isotope d5-desethylamodiaquine—is” for “isotope ^13C6-hydroxydiclofenac—is”, “inhibitor (Montelukast)” for “inhibitor (sulfaphenazole)”
For orientation: Liver microsomes are vesicles of endoplasmic reticulum, rich in cytochrome P450 enzymes.

The nature of another series: Aqueous solubility. The settings on record: buffer pH 2.2, 24 h shaking, 2.5% DMSO; for solubility at 24 h: aqueous buffer, kinetic from dmso stock. It counts as physicochemical. Here is the method:
Starting from a 10 mM DMSO stock solution aliquots are diluted with acetonitrile/water (1/1) or buffer, respectively. After 24 h of shaking, the solutions are filtrated and analyzed by LC-UV. The amount dissolved in buffer is compared to the amount in the acetonitrile solution.

Where [4] appears, read: head-to-head compilation, given as IC50, values equal the EC50 of Table 2, read-out: GPR40: IC50.
Setting [5] is: 1321N1 cells stably expressing human GPR40, 1 h stimulation, read-out: EC50.

Sequence of human GPR40 receptor (O14842 whole entry): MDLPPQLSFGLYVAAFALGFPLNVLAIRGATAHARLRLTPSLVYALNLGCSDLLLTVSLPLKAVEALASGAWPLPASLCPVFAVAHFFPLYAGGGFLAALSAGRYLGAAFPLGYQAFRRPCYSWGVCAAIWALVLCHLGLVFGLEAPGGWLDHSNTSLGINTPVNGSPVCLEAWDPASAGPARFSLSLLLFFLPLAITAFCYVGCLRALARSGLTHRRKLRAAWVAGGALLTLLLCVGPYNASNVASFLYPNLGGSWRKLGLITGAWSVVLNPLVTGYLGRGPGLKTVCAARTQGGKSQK
Sequence of cytochrome P450 2C9-isoenzyme (P11712 whole entry): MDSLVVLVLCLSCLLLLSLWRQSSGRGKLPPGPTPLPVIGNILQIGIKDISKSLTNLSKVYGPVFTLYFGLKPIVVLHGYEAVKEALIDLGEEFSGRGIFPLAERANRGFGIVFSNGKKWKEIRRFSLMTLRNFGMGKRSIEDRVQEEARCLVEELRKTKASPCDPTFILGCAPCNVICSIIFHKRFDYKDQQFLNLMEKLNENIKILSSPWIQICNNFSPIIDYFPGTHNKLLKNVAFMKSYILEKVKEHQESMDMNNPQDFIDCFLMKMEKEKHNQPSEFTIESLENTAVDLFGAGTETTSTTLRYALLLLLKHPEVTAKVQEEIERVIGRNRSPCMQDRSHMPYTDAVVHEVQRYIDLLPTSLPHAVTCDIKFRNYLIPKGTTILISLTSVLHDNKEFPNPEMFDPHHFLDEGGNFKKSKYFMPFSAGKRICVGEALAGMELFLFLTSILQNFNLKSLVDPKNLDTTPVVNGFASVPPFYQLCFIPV
Sequence of cytochrome P450 2C8-isoenzyme (P10632 whole entry): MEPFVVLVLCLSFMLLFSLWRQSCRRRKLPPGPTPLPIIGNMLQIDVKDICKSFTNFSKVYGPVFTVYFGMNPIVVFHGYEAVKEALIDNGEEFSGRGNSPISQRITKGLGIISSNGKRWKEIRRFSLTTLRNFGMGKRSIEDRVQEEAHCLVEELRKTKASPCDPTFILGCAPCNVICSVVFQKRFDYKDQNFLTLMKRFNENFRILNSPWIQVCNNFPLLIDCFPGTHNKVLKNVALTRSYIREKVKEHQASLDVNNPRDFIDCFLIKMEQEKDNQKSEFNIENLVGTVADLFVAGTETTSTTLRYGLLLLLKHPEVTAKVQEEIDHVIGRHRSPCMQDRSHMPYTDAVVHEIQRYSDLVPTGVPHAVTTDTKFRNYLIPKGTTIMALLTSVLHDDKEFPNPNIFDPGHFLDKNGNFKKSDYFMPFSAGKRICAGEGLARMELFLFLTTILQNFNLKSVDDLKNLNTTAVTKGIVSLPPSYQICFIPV

For `Cc1cc(-c2nnn(C)n2)cc(C)c1-c1ccc(F)c2c1CC[C@H]2Oc1ccc([C@H]2C[C@@H]2C(=O)O)cc1` [Example 33 in WO 2013/178575], the “Amount of degradation after 2 h” value in series [1] is reported as 8%.

`Cc1cc(-c2nnn(C)n2)cc(C)c1-c1ccc(F)c2c1CC[C@H]2Oc1ccc([C@H]2C[C@@H]2C(=O)O)cc1` [Example 54 in WO 2013/178575]: in series [1], the “Amount of degradation after 2 h” value is recorded as 2.5%^.

With `Cc1cc(-c2nnn(C)n2)cc(C)c1-c1ccc(F)c2c1CC[C@H]2Oc1ccc([C@H]2C[C@@H]2C(=O)O)cc1` [Example 15 in WO 2013/178575], in series [1], the “Amount of degradation after 2 h” value amounted to 3%.

Compound `Cc1cc(OCCC(C)(C)O)cc(C)c1-c1ccc(F)c2c1CC[C@H]2Oc1ccc([C@H]2C[C@@H]2C(=O)O)cc1` [Example 17 in WO 2013/178575, reference compound] gave a pIC50 in series [2] of 4.85. Besides, the “Amount of degradation after 2 h” value in series [1] is recorded as 8%. At human GPR40 receptor (setting [4]), the pEC50 was 8.40. The compound also showed a pIC50 in series [3] of 5.22. Besides, in “Aqueous solubility”, the solubility at 24 h was less than 1 µg/mL and the “Solubility at pH value 2.2” value was less than 1 μg/mL.

Turning to `Cc1cc(O[C@@H]2CCOC2)cc(C)c1-c1ccc(F)c2c1CC[C@H]2Nc1ccc([C@H]2C[C@@H]2C(=O)O)nc1` [Example 12], the values for the pIC50 in series [2] and in series [3] were less than 4.30 and 4.52, respectively. In addition, on human GPR40 receptor (setting [5]), the pEC50 was 8.00. In addition, the “Solubility at pH value 2.2” value in “Aqueous solubility” amounted to 105 μg/mL.

On to `Cc1cc(OCC(C)(C)O)cc(C)c1-c1ccc(F)c2c1CC[C@H]2Nc1ccc([C@H]2C[C@@H]2C(=O)O)nc1` [Example 34], for which the pIC50 in series [2] is less than 4.30; in series [3], 4.35. In addition, the pEC50 at human GPR40 receptor (setting [5]) was 8.00. For the same compound, in “Aqueous solubility”, the “Solubility at pH value 2.2” value was 111 μg/mL.

With `Cc1cc(C(=O)N(C)C)cc(C)c1-c1ccc(F)c2c1CC[C@H]2Nc1ccc([C@H]2C[C@@H]2C(=O)O)nc1` [Example 39], the pIC50 in series [2] and in series [3] was less than 4.30 each time. Also, the pEC50 at human GPR40 receptor (setting [5]) was 6.83. Also, in “Aqueous solubility”, the “Solubility at pH value 2.2” value is 118 μg/mL.

For the compound `Cc1cc(O[C@@H]2COC[C@H]2O)cc(C)c1-c1ccc(F)c2c1CC[C@H]2Nc1ccc([C@H]2C[C@@H]2C(=O)O)nc1` [Example 5, (1S,2S)-2-(5-{(R)-7-Fluoro-4-[4-((3R,4R)-4-hydroxy-tetrahydro-furan-3-yloxy)-2,6-dimethyl-phenyl]-indan-1-ylamino}-pyridin-2-yl)-cyclopropanecarboxylic acid], the pIC50 in series [2] and in series [3] was less than 4.30 each time. In series [1], the “Amount of degradation after 2 h” value was less than 0.5%. For the same compound, the pEC50 on human GPR40 receptor (setting [5]) is 7.46. This compound also yielded a solubility at 24 h in the series “Aqueous solubility” of 121 µg/mL (≈ 233 µM).

With `Cc1cc(OCC2(O)CCS(=O)(=O)CC2)cc(C)c1-c1ccc(F)c2c1CC[C@H]2Nc1ccc([C@H]2C[C@@H]2C(=O)O)nc1` [Example 38], the pIC50 in series [2] and in series [3] was less than 4.30 throughout. Besides, the pEC50 on human GPR40 receptor (setting [5]) was 7.74. Also, the “Solubility at pH value 2.2” value in the series “Aqueous solubility” is recorded as more than 154 μg/mL.

Take `Cc1cnc(-c2cc(C)c(-c3ccc(F)c4c3CC[C@H]4Nc3ccc([C@H]4C[C@@H]4C(=O)O)nc3)c(C)c2)nc1` [Example 21]: the figures for the pIC50 in series [2] and in series [3] were 4.44 and 4.82, respectively. On human GPR40 receptor (setting [5]), the pEC50 is 8.70. For the same compound, the “Solubility at pH value 2.2” value in “Aqueous solubility” is reported as 91 μg/mL.

Consider `Cc1cc(OCCCS(C)(=O)=O)cc(C)c1-c1ccc(F)c2c1CC[C@H]2Nc1ccc([C@H]2C[C@@H]2C(=O)O)nc1` [Example 4, (1S,2S)-2-(5-{(R)-7-Fluoro-4-[4-(3-methanesulfonyl-propoxy)-2,6-dimethyl-phenyl]-indan-1-ylamino}-pyridin-2-yl)-cyclopropanecarboxylic acid], for which the pIC50 in series [2] and in series [3] was less than 4.30 each time. In addition, the pEC50 at human GPR40 receptor (setting [5]) and on human GPR40 receptor (setting [4]) was 8.15 throughout. This compound also gave a solubility at 24 h in the series “Aqueous solubility” of 97 µg/mL (≈ 176 µM).

As for `N#CC1(c2ccccc2-c2ccc(F)c3c2CC[C@H]3Nc2ccc([C@H]3C[C@@H]3C(=O)O)nc2)CC1` (mixture of isomers) [Example 25], the pIC50 in series [2] is 4.40; in series [3], 4.31. The pEC50 at human GPR40 receptor (setting [5]) is 6.46. For the same compound, the “Solubility at pH value 2.2” value in the series “Aqueous solubility” turned out to be 110 μg/mL.

As usually defined, the pIC50 is the IC50 on a negative log10 scale, so that one unit is a factor of ten. A lower pIC50 goes with a high IC50. The solubility is how much of the substance goes into solution per volume. The low end stands for little dissolved substance, the high end for much dissolved substance. A word on the Solubility: it is how much of the substance goes into solution per volume.
